Patent US20230133251A1, “ADMINISTRATION OF mTOR INHIBITORS INTO THE CENTRAL NERVOUS SYSTEM” (priority 2020, published 2023)

Experiments:
SH-SY5Y cells = test: MTT proliferation assay, activity of stored everolimus samples; assay type: cell-based; conditions: for day of drastic decrease in anti-proliferative activity: tested at 5 nM
Method: (§1) Both HeLa cells (cervical cancer cell line) and SH-SY5Y cells (neuroblastoma cell line) were obtained from the American Type Culture Collection (Manassas, Va., USA) and cultured in Dulbecco's Modified Eagle's medium (DMEM with L-glutamine) supplemented with 10% (v/v) heat-inactivated foetal bovine serum (FBS), 100 U of penicillin, 100 U of streptomycin in a 5% CO2 humidified incubator at 37° C. Cell viability was verified with the standard Trypan Blue method.
(§2) The activity of everolimus in organic solution and in the micelles was determined by evaluating cell proliferation after the treatment. Briefly, the HeLa and SH-SY5Y cells were seeded in a 96-well plate at a concentration of 3000 cells/well and 6000 cells/well, respectively, and were maintained in the culture medium (100 μl) for 24 hours. After incubation at 37, 25 and 4° C. for 7, 14, 35, 50 and 77 days, the samples were suspended in the cell culture medium at a final concentration of 5 nM. Untreated cells, cells treated with a 10% v/v DMSO/saline solution (Veh) and empty micelles in saline solution, both diluted in a manner equivalent to the drug, were analysed as controls. A freshly prepared everolimus solution was used as the reference standard. Cell proliferation was evaluated using the 3-[4,5-dimethylthiazol-2-yl]-2,5-diphenyltetrazolium (MTT) assay (Sigma-Aldrich) according to the manufacturer's manual. The cells were mixed with 10 μl of MTT (0.5 mg/ml) and kept in a humidified incubator at 37° C. for 4 hours. Subsequently, 100 μl of a solubilisation solution (10% SDS with 0.01 N HCl) were added to each well. Formazan crystal solubilisation was carried out overnight in an incubator a 37° C. The next day, cell proliferation was evaluated by means of spectrophotometric readings taken with a Beckman Coulter DTX 880 multimode detector (Beckman Coulter Inc., Brea, Calif., USA) using a line at 589 nm and reference at 650 nm.
(§3) In order to correlate the stability of everolimus with the preservation of activity, samples incubated under the same conditions as in the stability study were dosed in HeLa and SH-SY5Y cells at established points in time. For this test the cell lines were seeded and maintained for 24 hours at 37° C. prior to treatment. […] The activity of the solution, by contrast, began to wane at 35 days, confirming a prolonged effect of inhibition of the micelles on cell proliferation. […] In order to better quantify the differences among the various samples in terms of the residual activity of everolimus, the residual anti-proliferative activity was calculated and is shown in FIGS. 3A and 3B.

HeLa cells = test: as above; assay type: cell-based; conditions: for day of drastic decrease in anti-proliferative activity: tested at 5 nM
Method: as §1, §2, §3

[1] = Evaluation of stability by HPLC analysis of everolimus samples stored at 37, 25 and 4° C.; assay type: physicochemical
Method: Everolimus (Selleck Chemicals, Aurogene, Rome, Italy) was dissolved in DMSO (VWR, Milan, Italy) at a concentration of 1 mg/ml. The everolimus solution was subsequently diluted in 10% v/v DMSO/saline solution until obtaining a final concentration of 10 μg/ml. The resulting solution was then incubated at 4, 25 and 37° C.
Carefully weighed amounts of everolimus and distearoylphosphoethanolam ine-polyethylene glycol 2000 (DSPE-PEG2000, Lipoid, Switzerland) were dissolved in 3 ml of chloroform (Sigma-Aldrich, Milan, Italy) in a 50 ml flask. The solvent was removed by light evaporation at room temperature under a flow of nitrogen and vacuum dried for 1 hour to eliminate residual traces. The thin film obtained was reconstituted in an exact volume (3 mL) of aqueous medium. After complete reconstitution a clear micellar dispersion was obtained. The dispersion was then incubated at 4, 25 and 37° C.
The drug was quantified using the HPLC method. Briefly, the instrument used is a Portlab STAYER HPLC system equipped with a UV detector, a parallel pump and Triathlon autosampler (Portlab, Rome, Italy). The conditions used are the following: isocratic mode with acetonitrile:water (60:40, v/v) eluted at 0.8 ml/min and a Zorbax C8 column, 4.6 mm ID×250 mm, 5 μm (Agilent, Milan, Italy) equilibrated at 55° C. UV detection was performed at 278 nm. A calibration curve was constructed in the concentration interval of 0.62-10 μg/mL (r^2=0.9992).
The samples of solution were injected directly (injection volume 15 μL), whereas the micellar suspension was diluted 200 times in DMSO before being subjected to analysis. In order to reduce the carryover effects and an excessive accumulation of lipids in the column, samples of solution and micelles were injected alternately. The column was periodically washed with chloroform and methanol to avoid the accumulation of lipids and impairment of performance. All measurements were performed in triplicate and the results were expressed as the mean±D.S.

CO[C@H]1C[C@@H]2CC[C@@H](C)[C@@](O)(O2)C(=O)C(=O)N2CCCC[C@H]2C(=O)O[C@H]([C@H](C)C[C@@H]2CC[C@@H](OCCO)[C@H](OC)C2)CC(=O)[C@H](C)/C=C(\C)[C@@H](O)[C@@H](OC)C(=O)[C@H](C)C[C@H](C)/C=C/C=C/C=C/1C [solution, Everolimus]
day at which activity began to wane (SH-SY5Y cells; 5 nM): 35 days
day of drastic decrease in anti-proliferative activity (SH-SY5Y cells; sample stored at 4° C.): 50 days
day of drastic decrease in anti-proliferative activity (SH-SY5Y cells; sample stored at 25° C.): 35 days
day of drastic decrease in anti-proliferative activity (SH-SY5Y cells; sample stored at 37° C.): 14 days
day at which activity began to wane (HeLa cells; 5 nM): 35 days
day of drastic decrease in anti-proliferative activity (HeLa cells; sample stored at 4° C.): 50 days
day of drastic decrease in anti-proliferative activity (HeLa cells; sample stored at 25° C.): 35 days
day of drastic decrease in anti-proliferative activity (HeLa cells; sample stored at 37° C.): 14 days
day by which everolimus had decayed (HPLC) ([1]; stored at 4° C.): ≤ 50 days
day by which everolimus had decayed (HPLC) ([1]; stored at 25° C.): ≤ 35 days
day by which everolimus had fallen to zero / decayed (HPLC) ([1]; stored at 37° C.): ≤ 14 days
